Laboratory results taken from patent US10485235B2, “Aryloxypyrimidinyl ethers as herbicides” (FMC Corporation, priority 2015, dated 2019).

Key:
Assay type in all cases: in vivo
[1] = tested on: foxtail, giant (giant foxtail, Setaria faberii); test: Test A preemergence, giant foxtail; conditions: Setaria faberi, pre-emergence, 240 h, Preemergence, 0 to 100 scale (0 no effect, 100 complete control), read-out: Plant response rating, Foxtail, Giant; for pest or weed control at 125 g/ha: 125 g ai/ha; for pest or weed control at 500 g/ha: 500 g ai/ha
In short: (§1)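 For postemergence, one- to two-leaf plants 2–10 cm tall were sprayed; for preemergence, seeded loam–sand soil got a directed spray. Both used compound in a non-phytotoxic, surfactant-containing solvent, with visual injury ratings (0–100) after roughly 10 greenhouse days.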

[2] = tested on: barnyardgrass (Echinochloa crus-galli); test: Test B flooded paddy test, barnyardgrass; conditions: Echinochloa crus-galli; 250 g ai/ha, Flood; visual rating after 13 to 15 days; scale 0 to 100, 0 is no effect, 100 is complete control; read-out: Plant response rating, Barnyardgrass
In short: (§2)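 2-leaf plants; flood to 3 cm, dose into water, hold depth; greenhouse 13–15 d; visual score 0–100 vs controls; dash = not tested.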

[3] = tested on: sedge, umbrella (small-flower umbrella sedge, Cyperus difformis); test: Test B flooded paddy test, umbrella sedge; conditions: Cyperus difformis; 250 g ai/ha, Flood; visual rating after 13 to 15 days; scale 0 to 100, 0 is no effect, 100 is complete control; read-out: Plant response rating, Sedge, Umbrella
In short: as §2

[4] = tested on: pigweed (Amaranthus retroflexus); test: Test A preemergence, pigweed; conditions: Amaranthus retroflexus, pre-emergence, 240 h, Preemergence, 0 to 100 scale (0 no effect, 100 complete control), read-out: Plant response rating, Pigweed; for pest or weed control at 125 g/ha: 125 g ai/ha; for pest or weed control at 500 g/ha: 500 g ai/ha
In short: as §1

[5] = tested on: ragweed (common ragweed, Ambrosia elatior); test: Test A preemergence, ragweed; conditions: Ambrosia artemisiifolia, pre-emergence, 240 h, Preemergence, 0 to 100 scale (0 no effect, 100 complete control), read-out: Plant response rating, Ragweed; for pest or weed control at 125 g/ha: 125 g ai/ha; for pest or weed control at 500 g/ha: 500 g ai/ha
In short: as §1

[6] = tested on: foxtail, giant (giant foxtail, Setaria faberii); test: Test A postemergence, giant foxtail; conditions: Setaria faberi, post-emergence, 240 h, postemergence, 0 to 100 scale, 0 is no effect, 100 is complete control, approximately 10 days, read-out: Plant response rating, Foxtail, Giant; for pest or weed control at 125 g/ha: 125 g ai/ha; for pest or weed control at 500 g/ha: 500 g ai/ha
In short: as §1

[7] = tested on: wheat (Triticum aestivum); test: Test A postemergence, wheat; conditions: Triticum aestivum, post-emergence, 240 h, postemergence, 0 to 100 scale, 0 is no effect, 100 is complete control, approximately 10 days, read-out: Plant response rating, Wheat; for plant injury at 125 g/ha: 125 g ai/ha; for plant injury at 500 g/ha: 500 g ai/ha
In short: as §1

[8] = tested on: galium (catchweed bedstraw, Galium aparine); test: Test A postemergence, galium; conditions: Galium, post-emergence, 240 h, postemergence, 0 to 100 scale, 0 is no effect, 100 is complete control, approximately 10 days, read-out: Plant response rating, Galium; for pest or weed control at 125 g/ha: 125 g ai/ha; for pest or weed control at 500 g/ha: 500 g ai/ha
In short: as §1

[9] = tested on: pigweed (Amaranthus retroflexus); test: Test A postemergence, pigweed; conditions: Amaranthus retroflexus, post-emergence, 240 h, postemergence, 0 to 100 scale, 0 is no effect, 100 is complete control, approximately 10 days, read-out: Plant response rating, Pigweed; for pest or weed control at 125 g/ha: 125 g ai/ha; for pest or weed control at 500 g/ha: 500 g ai/ha
In short: as §1

[10] = tested on: kochia (Kochia scoparia); test: Test A postemergence, kochia; conditions: Bassia scoparia, post-emergence, 240 h, postemergence, 0 to 100 scale, 0 is no effect, 100 is complete control, approximately 10 days, read-out: Plant response rating, Kochia; for pest or weed control at 125 g/ha: 125 g ai/ha; for pest or weed control at 500 g/ha: 500 g ai/ha
In short: as §1

[11] = tested on: blackgrass (Alopecurus myosuroides); test: Test A postemergence, blackgrass; conditions: Alopecurus myosuroides, post-emergence, 240 h, postemergence, 0 to 100 scale, 0 is no effect, 100 is complete control, approximately 10 days, read-out: Plant response rating, Blackgrass; for pest or weed control at 125 g/ha: 125 g ai/ha; for pest or weed control at 500 g/ha: 500 g ai/ha
In short: as §1

[12] = tested on: rice (Oryza sativa); test: Test B flooded paddy test, rice; conditions: Oryza sativa; 250 g ai/ha, Flood; visual rating after 13 to 15 days; scale 0 to 100, 0 is no effect, 100 is complete control; read-out: Plant response rating, Rice
In short: as §2

[13] = tested on: ragweed (common ragweed, Ambrosia elatior); test: Test A postemergence, ragweed; conditions: Ambrosia artemisiifolia, post-emergence, 240 h, postemergence, 0 to 100 scale, 0 is no effect, 100 is complete control, approximately 10 days, read-out: Plant response rating, Ragweed; for pest or weed control at 125 g/ha: 125 g ai/ha; for pest or weed control at 500 g/ha: 500 g ai/ha
In short: as §1

[14] = tested on: ryegrass, Italian (Italian ryegrass, Lolium multiflorum); test: Test A postemergence, Italian ryegrass; conditions: Lolium multiflorum, post-emergence, 240 h, postemergence, 0 to 100 scale, 0 is no effect, 100 is complete control, approximately 10 days, read-out: Plant response rating, Ryegrass, Italian; for pest or weed control at 125 g/ha: 125 g ai/ha; for pest or weed control at 500 g/ha: 500 g ai/ha
In short: as §1

| Structure (SMILES) | pest or weed control at 125 g/ha [1] | pest or weed control at 500 g/ha [1] | pest or weed control at 250 g/ha [2] | pest or weed control at 250 g/ha [3] | pest or weed control at 125 g/ha [4] | pest or weed control at 500 g/ha [4] | pest or weed control at 125 g/ha [5] | pest or weed control at 500 g/ha [5] | pest or weed control at 125 g/ha [6] | pest or weed control at 500 g/ha [6] | plant injury at 125 g/ha [7] | plant injury at 500 g/ha [7] | pest or weed control at 125 g/ha [8] | pest or weed control at 500 g/ha [8] | pest or weed control at 125 g/ha [9] | pest or weed control at 500 g/ha [9] | pest or weed control at 125 g/ha [10] | pest or weed control at 500 g/ha [10] | pest or weed control at 125 g/ha [11] | pest or weed control at 500 g/ha [11] | further results |
| --- | --- | --- | --- | --- | --- | --- | --- | --- | --- | --- | --- | --- | --- | --- | --- | --- | --- | --- | --- | --- | --- |
| N#Cc1cccc(Oc2ncc(Cl)cn2)c1OCC(F)(F)C(F)(F)F [Compound 10, 3-[(5-chloro-2-pyrimidinyl)oxy]-2-(2,2,3,3,3-pentafluoropropoxy)benzonitrile] | 100% | 100% | 50% | 85% | 100% | 100% | 20% | 10% | 100% | 100% | 30% | 90% | 90% | 100% | 100% | 100% | 100% | 100% | 90% | 100% | plant injury at 250 g/ha [12]: 20%; pest or weed control at 125 g/ha [13]: 0%; pest or weed control at 500 g/ha [13]: 50%; pest or weed control at 125 g/ha [14]: 30%; pest or weed control at 500 g/ha [14]: 90% |
| CCCCOc1c(Br)cccc1Oc1ncc(Cl)cn1 [Compound 13, 2-[3-bromo-2-(butoxy)phenoxy]-5-chloropyrimidine] | 100% | 100% | 0% | 95% | 100% | 100% | 0% | 10% | 90% | 100% | 20% | 40% | 90% | 100% | 100% | 100% | 100% | 100% | 50% | 100% | plant injury at 250 g/ha [12]: 20%; pest or weed control at 125 g/ha [13]: 0%; pest or weed control at 500 g/ha [13]: 10%; pest or weed control at 125 g/ha [14]: 20%; pest or weed control at 500 g/ha [14]: 90% |
| FC(F)C(F)(F)COc1c(Br)cccc1Oc1ncc(Cl)cn1 [Compound 18, 2-[3-bromo-2-(2,2,3,3-tetrafluoropropoxy)phenoxy]-5-chloropyrimidine] | 100% | 100% | 0% | 0% | 100% | 100% | 0% | 10% | 40% | 100% | 0% | 20% | 80% | 100% | 100% | 100% | 100% | 100% | 20% | 80% | plant injury at 250 g/ha [12]: 0%; pest or weed control at 125 g/ha [13]: 0%; pest or weed control at 500 g/ha [13]: 20%; pest or weed control at 125 g/ha [14]: 0%; pest or weed control at 500 g/ha [14]: 60% |
